In PMC10447463, “Data-mining unveils structure–property–activity correlation of viral infectivity enhancing self-assembling peptides” (Nature Communications, 2023):
“And” between values parts separate entries of the source, which are not always exact repeats. Equal entries are not always repeated. Where two headings read alike, the source gives them in different places.

Legend:
[1] = Zeta-potential measurement; format: physicochemical
Method in brief: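 PBS pH 7.4, 1 mg/mL peptide (DMSO stock), 1 d RT aggregation; diluted in 1 mM KCl pre-read; mobility → zeta (Smoluchowski); n = 3, 2 expts averaged.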

[2] = Turbidity, derived count rate of scattered light; format: physicochemical; conditions: for Count Rate: derived count rate of scattered light (turbidity); for Log10 Count Rate: turbidity, derived count rate of scattered light, data of Figure 2D
[3] = Turbidity, derived count rate of scattered light; format: physicochemical; conditions: for Count Rate / kcps: derived count rate of scattered light at 633 nm, 173°, from zeta-potential measurement, 0.1 mg/mL in 1 mM KCl after 1 d at 1 mg/mL in PBS, turbidity / microscopic aggregation, mean of triplicate
Method in brief: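 One-day room-temperature aggregation at 1 mg/mL in PBS (pH 7.4) preceded measurement; samples then went into 1 mM KCl. Triplicates per sample, two independent experiments averaged.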

[4] = test system: HIV-1 infection of TZM-bl cells; assay: HIV-1 infectivity enhancement assay, β-galactosidase luminescence; format: cell-based; conditions: for Rel-EFC / Log10 Infection Rel EFC: 1.3 µM peptide; for Rel-EFC: infection relative to EF-C (QCKIKQIINMWQ = 1); for Log10 Infection Rel EFC: log10 of infection relative to EF-C; for Log Infectivity: Log10 infection relative to EF-C, asymmetric std dev errors; for Log10 Infection Rel EF-C: HIV-1 infection of TZM-bl cells; for Log10 of Rel to EFC (Feb2021): Log10 of infection relative to EF-C; for Abs. Inf.: β-galactosidase luminescence; for Abs. Infection at 0.26 µM / Infect 1 0.26 µM / Infect 2 0.26 µM / Infect 3 0.26 µM: peptide 0.26 µM; for Infect 1 0.26 µM / Infect 1 .3 µM: replicate 1, absolute infection signal; for Infect 1 0.26 µM / Infect 2 0.26 µM / Infect 3 0.26 µM / Infect 1 .3 µM / Infect 2 1.3µM / Infect 3 1.3 µM: Figure 4A; for Infect 2 0.26 µM / Infect 2 1.3µM: replicate 2, absolute infection signal; for Infect 3 0.26 µM / Infect 3 1.3 µM: replicate 3, absolute infection signal; for Abs. Infection at 1.3 µM / Infect 1 .3 µM / Infect 2 1.3µM / Infect 3 1.3 µM: peptide 1.3 µM
[5] = β-sheet content by ATR-FT-IR; format: physicochemical; conditions: for b -sheet / %: Fig. S7 panel A, β-sheet content by ATR-FT-IR; for beta sheet: peptides with TEM 2cat 0
Method in brief: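 First, PNF was ultrafiltered (3 kDa MWCO, 16200 x g, 45 min, 4 °C). Next, filtrate and unfiltered sample were lyophilized and taken up in DMSO. Then fluorescamine was added for 20 min at RT before reading ex 365/em 470 nm. β-sheet: ATR FT-IR of lyophilized 1 mg/mL PNF.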

[6] = zeta-potential of peptide, source data of Figure 2C
[7] = zeta-potential of the peptide assemblies, mean, Figure 3A source data
[8] = Log10 of derived count rate of scattered light (turbidity)
[9] = log10 of derived count rate of scattered light (turbidity)
[10] = logarithm of count rate in kcps
[11] = turbidity, Log10 of derived count rate of scattered light, Figure 3A source data
[12] = Fig. S7 panel A (plotted against β-sheet content), TZM-bl cells
[13] = Fig. S7 panel B (plotted against CR), rounded to two decimals, TZM-bl cells
[14] = Log10 of infection rate relative to EF-C, Figure 3A source data
[15] = infection rate relative to EF-C, log10, data of Figure 2D
[16] = infection rate relative to EF-C, log10, source data of Figure 2C
[17] = absolute HIV-1 infection signal, TZM-bl cells
[18] = second listing, peptides with TEM 2cat 0
[19] = zeta potential of peptide assemblies

Substance | Zeta-Pot. [1] | Zeta-Potential / mV [1, 6] | Zeta-Potential / mV [1, 7] | Count Rate [2] | Log10 Count Rate [2] | Log10 Count Rate [3, 8] | Count Rate / kcps [3] | Log10 Count Rate [3, 9] | Log10 Count Rate [3, 10] | Log10 Count Rate [3, 11] | Rel-EFC [4] | Log10 Infection Rel EFC [4] | Log Infectivity [4, 12] | Log Infectivity [4, 13] | Log10 Infection Rel EF-C [4, 14] | Log10 Infection Rel EF-C [4, 15] | Log10 Infection Rel EF-C [4, 16] | Log10 of Rel to EFC (Feb2021) ([4]; all peptides of FigS16) | b -sheet / % [5] | Zeta-Pot. [1, 19] | also measured
CKFKFQFW | 15.2 | 16.02 mV | 15.2 mV | 29210.5 | 4.466 | 4.466 | 29211 kcps | 4.466 | 4.466 | 4.466 | 0,88 | -0,06 | -0.05512 | -0.06 | -0.06 | -0.05512 | -0.05512 | -0.06 | 42.53% |  | Abs. Inf. [4, 17]: 17862.22222
KIKIQINMWWWQ | 9.45 | 9.633 mV | 9.45 mV | 7596.3 | 3.8806 | 3.8806 | 7596 kcps | 3.8806 |  | 3.8806 | 2,75 | 0,44 | 0.4391 |  | 0.44 | 0.4391 | 0.4391 | 0.44 | 47.92% |  | Zeta Count Rate ([3]; peptides with TEM 2cat 0): 7596 kcp; Log10 of Rel to EFC (Feb2021) [4, 18]: 0.44; Abs. Inf. [4, 17]: 15400; beta sheet [5]: 48
HHHHKIKIKIKIWWWW |  | 14.42 mV | 14.5 mV | 23756.66667 | 4.376 | 4.376 | 23757 kcps | 4.376 | 4.376 | 4.376 | 0,38 | -0,42 | -0.4216 | -0.42 | -0.42 | -0.4216 | -0.4216 | -0.42 | 48.8% | 14.5 | Zeta Count Rate ([3]; peptides with TEM 2cat 0): 23757 kcp; Log10 of Rel to EFC (Feb2021) [4, 18]: -0.42; beta sheet [5]: 49
HHHHKIKIKIKIYYYY |  | 12.88 mV | 13.2 mV | 12792.53333 | 4.107 | 4.107 | 12793 kcps | 4.107 | 4.107 | 4.107 | 0,68 | -0,17 | -0.1685 |  | -0.17 | -0.1685 | -0.1685 | -0.17 | 53.27% | 13.2 | Zeta Count Rate ([3]; peptides with TEM 2cat 0): 12793 kcp; Log10 of Rel to EFC (Feb2021) [4, 18]: -0.17; Abs. Infection at 0.26 µM ([4]; mean of n = 3, Figure 4A): 8963; Infect 1 0.26 µM [4]: 7733.33; Infect 2 0.26 µM [4]: 6433.33; Infect 3 0.26 µM [4]: 12723.33; Abs. Infection at 1.3 µM ([4]; mean of n = 3, Figure 4A): 20713.33333; Infect 1 .3 µM [4]: 24723.33; Infect 2 1.3µM [4]: 15203.33; Infect 3 1.3 µM [4]: 22213.33; beta sheet [5]: 53
ILKNLSRSRKIKIQIC |  | 19.25 mV | 18 mV | 2392 | 3.379 | 3.379 | 2392 kcps | 3.379 |  | 3.379 | 0,34 | -0,47 | -0.4741 |  | -0.47 | -0.4741 | -0.4741 | -0.47 | 37.6% | 18 | 
CKFKQFF | 11.56 | 8.055 mV | 11.56 mV | 2.567 | 0.4094 | 0.4094 | 3 kcps |  | 0.4099 | 0.4094 | 0,01 | -2,17 | -2.171 | -2.17 | -2.17 | -2.171 | -2.171 |  | 45.4057% |  | Log10 Count Rate ([3]; turbidity, log10 of derived count rate of scattered light): 0.4094; Abs. Inf. ([4]; absolute infection signal, HIV-1 on TZM-bl cells): 260; Log10 Inf. rel. to EF-C ([4]; log10 of HIV-1 infection of TZM-bl cells relative to EF-C (EF-C = 0)): -2.171; Abs. Infection at 0.26 µM ([4]; mean of n = 3, Figure 4A): 366.7; Infect 1 0.26 µM [4]: 260; Infect 2 0.26 µM [4]: 50; Infect 3 0.26 µM [4]: 790; Abs. Infection at 1.3 µM ([4]; mean of n = 3, Figure 4A): 260; Infect 1 .3 µM [4]: 440; Infect 2 1.3µM [4]: 160; Infect 3 1.3 µM [4]: 180
CQFQFQF |  | -25.37 mV | -24.8 mV | 7929 | 3.899 | 3.899 | 7929 kcps | 3.899 | 3.899 | 3.899 | 0,35 | -0,45 | -0.4519 |  | -0.45 | -0.4519 | -0.4519 | -0.45 | 34.9% | -24.8 | 
CKIKIQI |  | 13.2 mV | 12.8 mV | 2432.9 | 3.386 | 3.386 | 2432 ± 1342 kcps and 2433 kcps | 3.386 | 3.386 | 3.386 | 1,02 | 0,01 | 0.0081 | 0.01 | 0.01 | 0.0081 | 0.0081 | 0.01 | 53% | 12.8 | Zeta pot. / mV ([1]; 1 mg/mL in PBS pH 7.4 from 10 mg/mL DMSO stock, 1 d RT, 60 µL diluted in 600 µL 1 mM KCl, Zetasizer Nano ZS, Smoluchowski, mean of triplicate): 12.8 mV; Zeta Count Rate ([3]; mean of the 3 replicates): 2432.9 kcps; Zeta Count Rate ([3]; replicate 2): 1640.5 kcps; Zeta Count Rate ([3]; replicate 3): 4323.3 kcps; Abs. Inf. / RLU s-1 ([4]; absolute infection rate, peptide 1.3 µM on cells, virus preincubated 10 min with fibrils, read 3 days post infection, mean of triplicate): 19406.66667 RLU s-1; Abs. Infection at 0.26 µM ([4]; mean of triplicate): 4967; Infection RLU/s, 1.3 µm abs ([4]; peptide 1.3 µm (so in the source), mean of the 3 replicates): 19406.66667 RLU/s; FTIR ß-sheet content [5]: 53%
EIKIQINM | -22.33 | -20.62 mV | -22.33 mV | 2816 | 3.45 | 3.45 | 2816 kcps | 3.45 |  | 3.45 | 0,1 | -1 | -1.001 | -1 | -1 | -1.001 | -1.001 |  | 48.03% |  | Abs. Inf. [4, 17]: 3607
